Measurements taken from ChEMBL document CHEMBL4622882, “Discovery of a novel indole pharmacophore for the irreversible inhibition of myeloperoxidase (MPO)” (Bioorg Med Chem, 2020).
≈ marks a conversion by molar mass, not a printed value. Calls of active or inactive are those of the source. The calls are words filed in the database; no cut-off is given here.

Test system: not listed separately
Assay: Unbound Cmax in mouse at 10 mg/kg, po
Type: ADME, organism-based
Details: in vivo

fCmax [nM]	Compound
2	CN(C)Cc1ccc(-n2cc(-c3ccc4cc[nH]c4c3)c3c(Cl)ccnc32)cc1

Test system: not listed separately
Assay: Plasma protein binding in mouse at 1mg/kg, iv or 10 mg/kg, po
Type: ADME, organism-based
Details: read-out: PPB (converted)

fraction unbound	Compound
0.004	CN(C)Cc1ccc(-n2cc(-c3ccc4cc[nH]c4c3)c3c(Cl)ccnc32)cc1

Test system: not listed separately
Assay: Cmax in mouse at 10 mg/kg, po
Type: ADME, organism-based
Set-up: dose 10 mg/kg, route oral
Details: in vivo

Cmax [nM]	Compound
502	CN(C)Cc1ccc(-n2cc(-c3ccc4cc[nH]c4c3)c3c(Cl)ccnc32)cc1
1990	N[C@@H]1CC[C@@H](n2cc(-c3ccc4cc[nH]c4c3)c(C(F)(F)F)n2)C1

Target: T1, Myeloperoxidase (Homo sapiens, UniProt P05164)
T1 sequence (P05164 whole entry): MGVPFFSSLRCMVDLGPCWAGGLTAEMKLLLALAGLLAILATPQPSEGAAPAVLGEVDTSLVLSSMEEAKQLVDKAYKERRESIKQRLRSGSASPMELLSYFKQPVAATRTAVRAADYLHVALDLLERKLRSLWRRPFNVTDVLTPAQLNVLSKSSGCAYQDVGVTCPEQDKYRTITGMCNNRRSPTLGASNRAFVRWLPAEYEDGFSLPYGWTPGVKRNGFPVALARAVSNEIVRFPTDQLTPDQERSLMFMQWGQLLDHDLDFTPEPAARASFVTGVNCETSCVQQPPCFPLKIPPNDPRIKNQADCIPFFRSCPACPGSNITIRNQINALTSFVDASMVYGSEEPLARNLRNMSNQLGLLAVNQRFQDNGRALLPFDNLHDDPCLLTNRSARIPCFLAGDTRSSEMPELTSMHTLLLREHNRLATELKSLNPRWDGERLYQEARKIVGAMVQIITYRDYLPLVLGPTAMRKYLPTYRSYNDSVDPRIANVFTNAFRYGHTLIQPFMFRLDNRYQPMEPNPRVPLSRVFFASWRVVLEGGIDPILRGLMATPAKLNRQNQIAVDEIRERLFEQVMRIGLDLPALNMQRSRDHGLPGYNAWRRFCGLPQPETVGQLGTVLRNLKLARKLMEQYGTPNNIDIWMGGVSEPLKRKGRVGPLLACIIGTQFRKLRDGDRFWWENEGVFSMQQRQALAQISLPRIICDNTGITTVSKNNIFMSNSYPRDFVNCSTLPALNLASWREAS
Assay: Inhibition of myeloperoxidase (unknown origin)
Details: not given

IC50 [nM]	Compound
120	CN(C)Cc1ccc(-n2cc(-c3ccc4cc[nH]c4c3)c3c(Cl)ccnc32)cc1
70	N[C@@H]1CC[C@@H](n2cc(-c3ccc4cc[nH]c4c3)c(C(F)(F)F)n2)C1

Target: T1, Myeloperoxidase
Assay: Inhibition of human plasma myeloperoxidase
Details: not given

IC50 [nM]	Compound
2600	CN(C)Cc1ccc(-n2cc(-c3ccc4cc[nH]c4c3)c3c(Cl)ccnc32)cc1
170	N[C@@H]1CC[C@@H](n2cc(-c3ccc4cc[nH]c4c3)c(C(F)(F)F)n2)C1

Target: T2, Myeloperoxidase (Homo sapiens) (UniProt P05164)
T2 sequence (whole entry): T1 sequence (P05164 whole entry)
Assay: Inhibition of myeloperoxidase (unknown origin) assessed as ratio of Kinact to Ki
Details: not given

Ratio [M⁻¹ s⁻¹]	Compound
210000	CN(C)Cc1ccc(-n2cc(-c3ccc4cc[nH]c4c3)c3c(Cl)ccnc32)cc1
230000	N[C@@H]1CC[C@@H](n2cc(-c3ccc4cc[nH]c4c3)c(C(F)(F)F)n2)C1

Target: T2, Myeloperoxidase (Homo sapiens)
Assay: Inhibition of myeloperoxidase (unknown origin) assessed as partition ratio by Amplex red based fluorescence assay
Details: not given

Ratio	Compound
3.7	CN(C)Cc1ccc(-n2cc(-c3ccc4cc[nH]c4c3)c3c(Cl)ccnc32)cc1
3.1	N[C@@H]1CC[C@@H](n2cc(-c3ccc4cc[nH]c4c3)c(C(F)(F)F)n2)C1

Target: T3, Thyroid peroxidase (Homo sapiens, UniProt P07202)
T3 sequence (P07202 whole entry): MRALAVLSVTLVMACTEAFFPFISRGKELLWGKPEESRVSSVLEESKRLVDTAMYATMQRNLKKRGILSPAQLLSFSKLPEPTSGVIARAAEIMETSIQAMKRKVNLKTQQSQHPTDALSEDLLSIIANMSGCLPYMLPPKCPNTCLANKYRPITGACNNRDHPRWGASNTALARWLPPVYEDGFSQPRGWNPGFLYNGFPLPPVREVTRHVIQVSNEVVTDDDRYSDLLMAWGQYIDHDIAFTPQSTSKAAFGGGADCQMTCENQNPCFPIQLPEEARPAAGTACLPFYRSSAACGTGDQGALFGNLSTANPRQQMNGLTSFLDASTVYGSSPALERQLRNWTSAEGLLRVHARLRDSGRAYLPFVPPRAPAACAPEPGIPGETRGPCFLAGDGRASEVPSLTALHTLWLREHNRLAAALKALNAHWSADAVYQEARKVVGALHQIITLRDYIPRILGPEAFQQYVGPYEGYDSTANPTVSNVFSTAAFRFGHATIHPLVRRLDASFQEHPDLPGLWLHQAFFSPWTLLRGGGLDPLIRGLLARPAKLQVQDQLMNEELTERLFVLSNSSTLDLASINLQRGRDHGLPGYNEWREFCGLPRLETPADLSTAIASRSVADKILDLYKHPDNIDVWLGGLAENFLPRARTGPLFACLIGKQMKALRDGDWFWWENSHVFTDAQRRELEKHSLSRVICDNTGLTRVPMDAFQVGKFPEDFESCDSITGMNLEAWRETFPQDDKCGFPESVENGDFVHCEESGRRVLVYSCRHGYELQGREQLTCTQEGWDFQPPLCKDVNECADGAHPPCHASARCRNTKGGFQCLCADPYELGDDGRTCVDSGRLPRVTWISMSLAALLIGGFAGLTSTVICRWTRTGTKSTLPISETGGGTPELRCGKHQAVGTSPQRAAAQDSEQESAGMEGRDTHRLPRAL
Assay: Inhibition of thyroid peroxidase (unknown origin)
Details: not given

IC50 [nM]	Compound
5300	CN(C)Cc1ccc(-n2cc(-c3ccc4cc[nH]c4c3)c3c(Cl)ccnc32)cc1
> 30000	N[C@@H]1CC[C@@H](n2cc(-c3ccc4cc[nH]c4c3)c(C(F)(F)F)n2)C1

Test system: not listed separately
Assay: Solubility of the compound at pH 6.8
Type: physicochemical
Details: buffer

solubility [µM]	Compound
21 (≈ 8.42 µg/mL)	CN(C)Cc1ccc(-n2cc(-c3ccc4cc[nH]c4c3)c3c(Cl)ccnc32)cc1
587 (≈ 196 µg/mL)	N[C@@H]1CC[C@@H](n2cc(-c3ccc4cc[nH]c4c3)c(C(F)(F)F)n2)C1

Target: Voltage-gated inwardly rectifying potassium channel KCNH2 (Homo sapiens, UniProt Q12809)
Assay: Inhibition of human ERG
Details: not given

Sequence of Voltage-gated inwardly rectifying potassium channel KCNH2 (Q12809 whole entry): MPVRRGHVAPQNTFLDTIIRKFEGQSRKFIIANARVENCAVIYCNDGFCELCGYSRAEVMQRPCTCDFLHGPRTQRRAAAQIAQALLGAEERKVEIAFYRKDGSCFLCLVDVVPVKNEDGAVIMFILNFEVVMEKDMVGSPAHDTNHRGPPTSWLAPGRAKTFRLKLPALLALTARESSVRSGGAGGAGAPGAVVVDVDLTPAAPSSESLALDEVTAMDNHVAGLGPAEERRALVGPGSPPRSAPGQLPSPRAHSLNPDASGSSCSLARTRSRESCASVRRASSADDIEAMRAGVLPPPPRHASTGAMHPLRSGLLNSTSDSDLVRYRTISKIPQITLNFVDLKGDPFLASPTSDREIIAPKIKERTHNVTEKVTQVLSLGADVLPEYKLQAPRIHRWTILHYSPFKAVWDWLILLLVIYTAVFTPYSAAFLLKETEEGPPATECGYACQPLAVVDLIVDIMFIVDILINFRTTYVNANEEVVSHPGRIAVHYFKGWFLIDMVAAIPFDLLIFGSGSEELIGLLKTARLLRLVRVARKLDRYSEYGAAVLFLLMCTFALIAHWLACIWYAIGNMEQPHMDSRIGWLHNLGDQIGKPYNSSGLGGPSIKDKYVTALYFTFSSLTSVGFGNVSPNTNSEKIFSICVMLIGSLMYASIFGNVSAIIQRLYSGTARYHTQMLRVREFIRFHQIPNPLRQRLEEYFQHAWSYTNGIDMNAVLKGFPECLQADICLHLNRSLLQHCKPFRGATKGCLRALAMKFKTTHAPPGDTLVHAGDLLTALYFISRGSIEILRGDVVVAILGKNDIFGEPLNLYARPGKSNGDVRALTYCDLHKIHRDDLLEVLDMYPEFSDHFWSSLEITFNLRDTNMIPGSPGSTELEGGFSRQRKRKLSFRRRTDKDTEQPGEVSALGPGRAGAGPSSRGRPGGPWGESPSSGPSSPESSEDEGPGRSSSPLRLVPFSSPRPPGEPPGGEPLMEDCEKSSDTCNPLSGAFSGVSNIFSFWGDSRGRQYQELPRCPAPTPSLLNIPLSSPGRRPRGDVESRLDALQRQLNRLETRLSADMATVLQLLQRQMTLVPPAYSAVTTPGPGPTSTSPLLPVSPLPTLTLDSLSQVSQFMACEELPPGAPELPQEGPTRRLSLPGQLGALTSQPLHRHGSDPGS

Compound	IC50 [nM]
CN(C)Cc1ccc(-n2cc(-c3ccc4cc[nH]c4c3)c3c(Cl)ccnc32)cc1	1700
N[C@@H]1CC[C@@H](n2cc(-c3ccc4cc[nH]c4c3)c(C(F)(F)F)n2)C1	17000

Target: Cytochrome P450 3A4 (Homo sapiens, UniProt P08684)
Assay: Inhibition of CYP3A4 (unknown origin)
Type: ADME
Details: not given

Sequence of Cytochrome P450 3A4 (P08684 whole entry): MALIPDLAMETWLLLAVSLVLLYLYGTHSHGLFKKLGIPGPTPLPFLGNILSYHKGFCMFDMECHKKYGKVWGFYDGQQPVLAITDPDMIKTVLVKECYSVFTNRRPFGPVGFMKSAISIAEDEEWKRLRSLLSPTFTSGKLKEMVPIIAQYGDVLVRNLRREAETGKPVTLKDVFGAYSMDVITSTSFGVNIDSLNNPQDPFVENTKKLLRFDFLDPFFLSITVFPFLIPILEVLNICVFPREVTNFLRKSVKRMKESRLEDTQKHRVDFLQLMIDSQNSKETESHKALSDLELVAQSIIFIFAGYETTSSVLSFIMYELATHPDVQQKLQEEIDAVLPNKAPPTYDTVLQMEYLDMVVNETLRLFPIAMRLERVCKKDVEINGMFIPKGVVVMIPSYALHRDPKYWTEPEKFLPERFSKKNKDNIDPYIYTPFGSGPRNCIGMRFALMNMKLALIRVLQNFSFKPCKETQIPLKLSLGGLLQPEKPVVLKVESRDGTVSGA

IC [µM]	Compound
17	CN(C)Cc1ccc(-n2cc(-c3ccc4cc[nH]c4c3)c3c(Cl)ccnc32)cc1
34	N[C@@H]1CC[C@@H](n2cc(-c3ccc4cc[nH]c4c3)c(C(F)(F)F)n2)C1

Target: Cytochrome P450 2D6 (Homo sapiens, UniProt P10635)
Assay: Inhibition of CYP2D6 (unknown origin)
Type: ADME
Details: not given

Sequence of Cytochrome P450 2D6 (P10635 whole entry): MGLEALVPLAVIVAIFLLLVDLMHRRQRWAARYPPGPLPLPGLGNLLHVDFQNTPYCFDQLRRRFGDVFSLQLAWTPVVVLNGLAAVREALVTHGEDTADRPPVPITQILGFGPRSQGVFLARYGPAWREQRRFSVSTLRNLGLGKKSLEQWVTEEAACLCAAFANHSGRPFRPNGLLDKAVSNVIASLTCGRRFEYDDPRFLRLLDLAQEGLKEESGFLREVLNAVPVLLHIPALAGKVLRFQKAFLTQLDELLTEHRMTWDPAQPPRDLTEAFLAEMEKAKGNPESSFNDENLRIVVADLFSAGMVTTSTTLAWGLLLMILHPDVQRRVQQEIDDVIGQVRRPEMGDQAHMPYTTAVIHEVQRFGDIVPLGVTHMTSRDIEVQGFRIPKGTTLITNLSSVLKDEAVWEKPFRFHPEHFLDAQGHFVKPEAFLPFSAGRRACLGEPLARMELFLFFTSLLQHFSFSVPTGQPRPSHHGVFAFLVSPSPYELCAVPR

IC [µM]	Compound
21	CN(C)Cc1ccc(-n2cc(-c3ccc4cc[nH]c4c3)c3c(Cl)ccnc32)cc1
> 50	N[C@@H]1CC[C@@H](n2cc(-c3ccc4cc[nH]c4c3)c(C(F)(F)F)n2)C1

Test system: not listed separately
Assay: Plasma clearance in mouse at 1 mg/kg, iv
Type: ADME, organism-based
Details: not given

clearance [mL/min/kg]	Compound
64.7	CN(C)Cc1ccc(-n2cc(-c3ccc4cc[nH]c4c3)c3c(Cl)ccnc32)cc1
16.1	N[C@@H]1CC[C@@H](n2cc(-c3ccc4cc[nH]c4c3)c(C(F)(F)F)n2)C1

Test system: not listed separately
Assay: Volume of distribution at steady state in mouse at 1 mg/kg, iv
Type: ADME, organism-based
Details: in vivo, read-out: Vdss

Vd [L/kg]	Compound
9.8	CN(C)Cc1ccc(-n2cc(-c3ccc4cc[nH]c4c3)c3c(Cl)ccnc32)cc1

Test system: not listed separately
Assay: Elimination half life in mouse at 1 mg/kg, iv
Type: ADME, organism-based
Details: in vivo, read-out: beta t1/2 (converted)

half-life [h]	Compound
2.6	CN(C)Cc1ccc(-n2cc(-c3ccc4cc[nH]c4c3)c3c(Cl)ccnc32)cc1

Test system: not listed separately
Assay: AUCinfinity in mouse at 10 mg/kg, po
Type: ADME, organism-based
Set-up: dose 10 mg/kg, route oral, time infinity
Details: in vivo

AUC(0-inf) [µM·h]	Compound
2.49	CN(C)Cc1ccc(-n2cc(-c3ccc4cc[nH]c4c3)c3c(Cl)ccnc32)cc1
22.9	N[C@@H]1CC[C@@H](n2cc(-c3ccc4cc[nH]c4c3)c(C(F)(F)F)n2)C1

Test system: not listed separately
Assay: Oral bioavailability in mouse at 10 mg/kg
Type: ADME, organism-based
Details: in vivo

bioavailability [%]	Compound
61	CN(C)Cc1ccc(-n2cc(-c3ccc4cc[nH]c4c3)c3c(Cl)ccnc32)cc1
40	N[C@@H]1CC[C@@H](n2cc(-c3ccc4cc[nH]c4c3)c(C(F)(F)F)n2)C1

Test system: Mus musculus
Assay: Antiinflammatory activity against mouse model of thioglycolate/zymosan A induced peritonitis assessed as decrease in myeloperoxidase activity at 90 mg/kg, po pretreated for 4 hrs followed by zymosan A stimulation by ELISA
Type: functional
Set-up: scale not given: the % may be the effect or the level left
Details: not given

Compound	Activity [%]
CN(C)Cc1ccc(-n2cc(-c3ccc4cc[nH]c4c3)c3c(Cl)ccnc32)cc1	50

Test system: not listed separately
Assay: Plasma protein binding in human
Type: ADME, cell-free
Details: read-out: PPB (converted)

fraction unbound	Compound
0.034	N[C@@H]1CC[C@@H](n2cc(-c3ccc4cc[nH]c4c3)c(C(F)(F)F)n2)C1

Test system: not listed separately
Assay: Volume of distribution at steady state in mouse at 0.5 mg/kg, iv
Type: ADME, organism-based
Details: in vivo, read-out: Vdss

Vd [L/kg]	Compound
2.1	N[C@@H]1CC[C@@H](n2cc(-c3ccc4cc[nH]c4c3)c(C(F)(F)F)n2)C1

Test system: not listed separately
Assay: Elimination half life in mouse at 0.5 mg/kg, iv
Type: ADME, organism-based
Details: in vivo, read-out: beta t1/2 (converted)

half-life [h]	Compound
4.5	N[C@@H]1CC[C@@H](n2cc(-c3ccc4cc[nH]c4c3)c(C(F)(F)F)n2)C1

Test system: not listed separately
Assay: Plasma protein binding in mouse at 0.5 mg/kg, iv or 10 mg/kg, po
Type: ADME, organism-based
Details: read-out: PPB (converted)

fraction unbound	Compound
0.027	N[C@@H]1CC[C@@H](n2cc(-c3ccc4cc[nH]c4c3)c(C(F)(F)F)n2)C1

Target: T2, Myeloperoxidase (Homo sapiens)
Assay: Irreversible inhibition of human myeloperoxidase using H2O2 as substrate at 200 fold dilution and measured after 72 hrs by dialysis method
Details: not given

inhibition	Compound
Active	CN(C)Cc1ccc(-n2cc(-c3ccc4cc[nH]c4c3)c3c(Cl)ccnc32)cc1
